The results in this text go back to patent US12187706B2, “NLRP3 modulators” (INNATE TUMOR IMMUNITY, INC., priority 2019, dated 2025).

pEC50: −log10 of the molar value.

In this assay the target is T1, NLRP3 (Homo sapiens, UniProt Q96P20).
T1 construct: host or cells: PMA-differentiated THP-1 cells
Kind of assay: Measurement of IL-1β production in PMA-differentiated THP-1 cells (NLRP3 hIL1B). Format: cell-based. Here is the method: Measurement of IL-1β Production in PMA-Differentiated THP-1 Cells
THP-1 cells were purchased from the American Type Culture Collection and sub-cultured according to instructions from the supplier. Prior to experiments, cells were cultured in RPMI 1640 containing 10% heat inactivated FBS, penicillin (100 units/ml) and streptomycin (100 μg/ml), and maintained in log phase prior to experimental setup. Prior to the experiment THP-1 were treated with PMA (Phorbol 12-myristate 13-acetate) (10 μg/ml) for 24 hours. The day of the experiment the media was removed and attaching cells were treated with trypsin for 2 minutes, cells were then collected, washed with PBS (phosphate buffer saline), spin down, resuspended in 2% heat inactivated FBS with RPMI at a concentration of 1×10^6 cells/ml, and 100 μl was plated in a 96 well plate. Compounds were dissolved in dimethyl sulfoxide (DMSO) and added to the culture medium to achieve desired concentration (e.g. 100, 30, 10, 3, 1, 0.3 or 0.1 μM). Cells were incubated with compounds for 4 hours. Cell free supernatant was collected and the production of IL-1β was evaluated by ELISA. A vehicle only control was run concurrently with each experiment. Final DMSO concentration was 1%.
Measurement of IL-1β Production in PMA-Differentiated THP-1 Cells (Alternative Procedure)
THP-1 cells were purchased from the American Type Culture Collection and sub-cultured according to instructions from the supplier. Prior to experiments, cells were cultured in RPMI 1640 containing 10% heat inactivated FBS, penicillin (100 units/ml), streptomycin (100 μg/ml), HEPES (10 mM) and sodium pyruvate (1 mM) and maintained in log phase prior to experimental setup. Prior to the experiment, THP-1 cells were treated with PMA (Phorbol 12-myristate 13-acetate) (20 μg/ml) overnight. The day of the experiment, the media was removed and attached cells were treated with trypsin for 2 minutes, cells were then collected, washed with PBS (phosphate buffer saline), pelleted by centrifugation and resuspended in 2% heat inactivated FBS with RPMI at a concentration of 50,000 cells/well in a 384 well plate. Cell free supernatant was collected and the production of IL-1β was evaluated by ELISA. Compounds were dissolved in dimethyl sulfoxide (DMSO) and added to the culture medium to achieve desired concentration (e.g. 100, 30, 10, 3, 1, 0.3 or 0.1 μM). Cells were incubated with compounds for 2 hours. A vehicle only control was run concurrently with each experiment. Final DMSO concentration was 1%.
Measurement of IL-1β Production—hTRF Protocol (Second Alternative Procedure)
Serial dilutions of compounds in DMSO were added to low volume 384 well plates at 100 nl/well using an ECHO 550 acoustic dispenser (Labcyte) to achieve final starting concentration of 10 μM in assay.
THP-1 cells in RPMI (Gibco, 11875) media with 10% FBS at a density of 1×10^6 cell/ml in a T175 flask were treated with a final concentration of phorbol 12-myristate 13-acetate (PMA) (Sigma, P1585) of 50 ng/ml overnight at 37° C. at 5% CO2 for differentiation. Cells were harvested the next day after rinsing well with dPBS using 0.5% trypsin. A cell solution was prepared of 1×10^6 cells/ml for 50,000 cells in 50 μl/well in RPMI media with 2% FBS. Cells were plated using a multichannel pipette onto the compound dilutions in Greiner, 384 well, black clear bottom tissue culture treated plates (781090). The plates were incubated in 37° C. incubator at 5% CO2 for 2 hours.
After the 2 hour incubation, the cell plates were spun in the centrifuge for 5 minutes at 1200 rpm. Using the Felix (CyBio), 8 μl of the supernatant was transferred to 384 well, low volume, white proxy plates. (Perkin Elmer, 6008230). A human IL1beta hTRF kit was used to analyze the supernatant (CISBIO, 62HIL1BPEG). The kit instructions were followed for preparing the IL1Beta standard curve and then the antibodies from the kit were diluted 1:40 rather than 1:20 as kit instructed.

T1 sequence (Q96P20 whole entry): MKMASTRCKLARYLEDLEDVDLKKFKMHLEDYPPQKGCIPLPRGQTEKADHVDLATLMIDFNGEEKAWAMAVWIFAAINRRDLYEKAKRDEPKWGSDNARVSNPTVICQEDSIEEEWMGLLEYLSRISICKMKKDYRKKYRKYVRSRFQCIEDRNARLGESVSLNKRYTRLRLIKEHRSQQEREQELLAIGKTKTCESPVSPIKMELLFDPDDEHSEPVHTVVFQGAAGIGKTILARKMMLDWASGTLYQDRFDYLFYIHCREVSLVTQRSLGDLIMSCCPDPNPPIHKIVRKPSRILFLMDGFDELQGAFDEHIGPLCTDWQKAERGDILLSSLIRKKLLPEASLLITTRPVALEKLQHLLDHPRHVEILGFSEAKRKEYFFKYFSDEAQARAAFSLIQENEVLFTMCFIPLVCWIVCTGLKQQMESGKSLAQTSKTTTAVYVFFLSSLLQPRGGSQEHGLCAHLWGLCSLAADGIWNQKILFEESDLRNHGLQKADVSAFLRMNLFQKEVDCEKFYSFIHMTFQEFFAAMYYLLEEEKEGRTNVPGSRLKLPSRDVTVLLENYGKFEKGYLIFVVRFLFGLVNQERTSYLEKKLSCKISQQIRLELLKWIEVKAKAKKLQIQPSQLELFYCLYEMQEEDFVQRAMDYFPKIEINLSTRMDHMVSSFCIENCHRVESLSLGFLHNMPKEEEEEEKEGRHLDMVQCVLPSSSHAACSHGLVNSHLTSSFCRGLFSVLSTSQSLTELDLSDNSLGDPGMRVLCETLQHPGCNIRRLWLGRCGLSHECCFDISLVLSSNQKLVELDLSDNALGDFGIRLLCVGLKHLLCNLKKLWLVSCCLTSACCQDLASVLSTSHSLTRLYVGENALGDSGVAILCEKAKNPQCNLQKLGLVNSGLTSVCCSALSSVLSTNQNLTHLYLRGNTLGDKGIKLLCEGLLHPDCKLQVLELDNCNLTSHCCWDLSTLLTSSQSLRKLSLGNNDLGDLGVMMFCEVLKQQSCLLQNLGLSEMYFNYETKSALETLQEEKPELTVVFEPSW

The term pEC50 denotes the EC50 on a negative log10 scale, so that one unit is a factor of ten. Higher therefore signals a small EC50. `COc1cc(-c2cc[nH]n2)cc2nc(N)nc(N[C@@H]3CCOC3)c12` [Example 133]: the pEC50 was 6.19.
`Nc1nc(Nc2cnoc2)c2ccc(-c3ccn[nH]3)cc2n1` [Example 114] had a pEC50 of 6.43.
`Nc1nc(N[C@H]2CCCC[C@H]2O)c2ccc(-c3ccn[nH]3)cc2n1` [Example 67] gave a pEC50 of 5.65.
In turn, `C[C@@H](O)[C@@H](CO)Nc1nc(N)nc2cc(-c3ccn[nH]3)ccc12` [Example 64] had a pEC50 of 5.43.
Consider `Nc1nc(NCc2cc[nH]n2)c2c(F)cc(-c3cc[nH]n3)cc2n1` [Example 124], for which the pEC50 is 6.22.
In the case of `C[C@H](O)CNc1nc(N)nc2cc(-c3ccn[nH]3)ccc12` [Example 36], the pEC50 is 6.15.
The compound `Cn1ccnc1C(O)CNc1nc(N)nc2cc(-c3ccn[nH]3)ccc12` (single isomer, unassigned) [Example 150, 2-((2-amino-7-(1H-pyrazol-5-yl)quinazolin-4-yl)amino)-1-(1-methyl-1H-imidazol-2-yl)ethan-1-ol] showed a negative-log EC50 (pEC50) of 5.61.
`CC(O)(CO)CNc1nc(N)nc2cc(-c3ccn[nH]3)ccc12` (racemic) [Example 11, rac-3-((2-amino-7-(1H-pyrazol-5-yl)quinazolin-4-yl)amino)-2-methylpropane-1,2-diol] had a pEC50 of 5.94.
For `Nc1nc(NCCCCO)c2ccc(-c3ccn[nH]3)cc2n1` [Example 85], the pEC50 was 6.64.
`Nc1nc(N[C@@H]2CC[C@@H](O)[C@@H]2O)c2ccc(-c3ccn[nH]3)cc2n1` (racemic) [Example 110] had a pEC50 of 6.19.
For `Nc1nc(NC[C@@H](O)CO)c2ccc(-c3ccn[nH]3)cc2n1` [Example 69], the negative-log EC50 (pEC50) is 5.73.
The compound `CCCCONc1nc(N)nc2cc(-c3ccn[nH]3)ccc12` [Example 95] showed a pEC50 of 6.20.
Consider `COCc1noc(CNc2nc(N)nc3cc(-c4ccn[nH]4)ccc23)n1` [Example 76], for which the negative logarithm of the EC50 (pEC50) was 6.12.
The compound `Nc1nc(N[C@@H]2CCOC2)c2ccc(-c3cc[nH]n3)cc2n1` [Example 121] gave a pEC50 of 5.73.
`C[C@]1(O)CC[C@@H](Nc2nc(N)nc3cc(-c4ccn[nH]4)ccc23)C1` (racemic) [Example 107] had a pEC50 of 6.17.
`Nc1nc(N[C@@H]2CCOC2)c2c(F)cc(-c3cc[nH]n3)cc2n1` [Example 127] gave a pEC50 of 5.91.
Next, `CN(C)c1cc(-c2cc[nH]n2)cc2nc(N)nc(NCCCO)c12` [Example 22, 3-((2-amino-5-(dimethylamino)-7-(1H-pyrazol-3-yl)quinazolin-4-yl)amino)propan-1-ol]: 5.03.
As to `Nc1nc(NC(CO)c2cc[nH]n2)c2ccc(-c3ccn[nH]3)cc2n1` (stereo not shown) [Example 33], the negative logarithm of the EC50 (pEC50) was 5.27.
Compound `Nc1nc(NCC2(CO)CC2)c2ccc(-c3ccn[nH]3)cc2n1` [Example 204] had a pEC50 of 6.74.
Take `COCCCNc1nc(N)nc2cc(-c3ccn[nH]3)ccc12` [Example 94]: the pEC50 is 6.74.
Turning to `COC(CO)CNc1nc(N)nc2cc(-c3ccn[nH]3)ccc12` (single isomer, unassigned) [Example 203, 3-((2-amino-7-(1H-pyrazol-5-yl)quinazolin-4-yl)amino)-2-methoxypropan-1-ol], the pEC50 was 6.35.
Compound `COCCN1CCCC1CNc1nc(N)nc2cc(-c3ccn[nH]3)ccc12` (stereo not shown) [Example 172] showed a negative logarithm of the EC50 (pEC50) of 5.59.
With `Nc1nc(Nc2ccccc2)c2ccc(-c3ccn[nH]3)cc2n1` [Example 111], the negative logarithm of the EC50 (pEC50) is 6.40.
Compound `Nc1nc(N[C@H]2C[C@H](O)C2)c2ccc(-c3ccn[nH]3)cc2n1` [Example 154] had a negative logarithm of the EC50 (pEC50) of 6.80.
The compound `Nc1nc(NCCOCCO)c2ccc(-c3ccn[nH]3)cc2n1` [Example 140] showed a pEC50 of 5.99.
For `Nc1nc(NCc2cncnc2)c2ccc(-c3ccn[nH]3)cc2n1` [Example 49], the negative logarithm of the EC50 (pEC50) is 6.34.
As for `COc1cccc(CNc2nc(N)nc3cc(-c4ccn[nH]4)ccc23)n1` [Example 160], the pEC50 was 6.19.
As to `COc1ncc(CNc2nc(N)nc3cc(-c4ccn[nH]4)ccc23)cn1` [Example 48], the pEC50 was 5.53.
